Consider 2 molecules from US20250320246A1, “3-AZASTEROID COMPOUNDS FOR THE TREATMENT OF DISEASES RELATED TO MITROCHONDRIAL FUNCTION” (NZP UK LIMITED, priority 2022, published 2025).

Common to all, as to assay type: cell-based, human
Assay [1] has as its system sporadic PD patient fibroblasts. Put plainly: Cellular ATP levels in sporadic PD patient fibroblasts, full ATP assay. Conditions: Homo sapiens, Fibroblast, 24 h, 3 sporadic PD patient fibroblasts. The protocol:
(§1) Primary fibroblast cells were cultured continuously in Glucose based medium (high glucose (4500 mg/L) Dulbecco's Modified Eagle's medium (DMEM; Sigma-Aldrich) supplemented with 10% fetal bovine serum (Sigma-Aldrich), 100 IU/mL penicillin, 100 μg/mL streptomycin (Lonza), 1 mM sodium pyruvate (Sigma-Aldrich) and 50 μg/mL uridine (Sigma-Aldrich)). Unless otherwise stated, 24 hours prior to analysis, the Glucose based medium was exchanged for Galactose based medium (glucose-free DMEM (Gibco) with the same supplementation and in addition, 5 mM galactose (Sigma-Aldrich)). All cells were assessed between passage 6-10.
The ATP protocol is generally as described in Mortiboys et al 2008. Briefly, fibroblasts were cultured as and plated into white 384 well plates at a concentration of 5000 cells per well in 50 μl of media volume. The plates are left overnight in an incubator to allow the fibroblasts to adhere to the plate surface. The following morning the Glucose based medium is replaced with 25 μl of Galactose based medium. The plates were then spiked with the compounds using a ECHO 550 liquid handling system. The wells were dosed to provide an 8-point concentration range of 0.06 nM-300 nM of compound. After dosing the wells are topped up with a further 25 μl of Galactose based medium and then left in an incubator for 24 hours. Following this incubation, the medium is removed from the plate and the wells are washed twice with sterile PBS. The wells are filled with 25 μl of Sterile PBS followed by 12.5 μl of Lysis solution from the ATPlite™ Luminescence ATP detection assay system (Perkin Elmer), including 16 cell free wells to use as blank controls. The plate is then placed on a rotary shaker for 5 mins at 700 rpm. Following the shaking 12.5 μl of ATP substrate solution (Perkin Elmer) is added to each well and a further 5 min of shaking. The plate is then placed in darkness for 10 minutes prior to reading. Using a PHERAStar® plate reader, luminescence intensity is recorded. Following the ATP assay the plates are immediately assayed for DNA content in a CyQUANT® assay.
Immediately following The ATP assay DNA content is assessed with the CyQUANT® NF Cell Proliferation Assay Kit (ThermoFisher). CyQUANT® buffer is prepared immediately before the assay and is comprised of 1 μl CyQUANT® dye per ml×1 HBSS solution. 12.5 μl of CyQUANT® buffer is added to each well. Plate left in incubator for 1 hour then read on a PHERAStar© Plate reader with excitation at 497 nm and emission at 520 nm.
ATP Quantification for each well is determined using the following formula: […]
After the assays had been repeated in triplicate per line and compound the data was then inputted into Graph pad Prism 7 software suite where a dose response curve is generated using the default “[Agonist] vs response(three parameters)” equation.
From this EC50 values, lowest response and maximal response were taken and used to calculate the Geometric mean between the 5 different lines assessed.

The test system of assay [2] is iNeurons from sPD patients. Put plainly: Mitochondrial reactive oxygen species (ROS) in iNeurons from sPD patients. Conditions: sPD patient iNeurons treated; untreated sPD patients 115. The procedure: (§2) The fibroblasts lines and iNPC lines have previously been characterised and published in Carling et al, 2020.
(§3) Briefly, iNPCs are plated in a 6-well plate and cultured for 2 days in DMEM/F-12 medium with Glutamax™ supplemented with 1% NEAA, 2% B27 (Gibco) and 2.5 μM of DAPT. On day 3, DAPT is removed and the medium is supplemented with 1 μM smoothened agonist (SAG) and FGF8 (75 ng/ml) for additional 10 days. Neurons are replated at this stage. Subsequently SAG and FGF8 are withdrawn and replaced with BDNF (30 ng/ml), GDNF (30 ng/ml), TGF-b3 ([…]) and dcAMP (2 mM, Sigma) for 15 days, as previously described Schwartzentruber et al, 2020 and Carling et al, 2020. Dopaminergic neurons were treated with compounds at concentrations of 0.1 nM, 1 nM, 3 nM, 10 nM, 30 nM and 100 nM dosing every 3 days for the last 12 days of differentiation.
(§4) iNeurons were treated every 3 days for the last 12 days of the differentiation protocol. Cells are plated in 96 well plates; for live imaging cells are incubated for one hour at 37° C. with 80 nM tetramethlyrhodamine (TMRM), 1 μM LysoTracker® Green (Invitrogen) and Hoechst Stain solution (Sigma) at 1 μM before imaging using Opera Phenix™. Cellular ATP measurements are undertaken using ATPlite kit (Perkin Elmer) as per manufacturer's instructions. Mitochondrial reactive oxygen species generation was assessed using mitochondrial NpFR2 (probe; a kind gift from Dr Liz New, University of Sydney, Australia) at 20 μM and Hoechst stain solution at 1 μM for 30 mins at 37° C., then the dyes are removed and cells images using Opera Phenix™. Images generated from the live imaging experiments were analysed using Harmony® (Perkin Elmer software). We developed protocols in order to segment nucleus, cell boundary and processes, mitochondria, lysosomes, autophagosomes. We only analysed the z projection images collected from the z stacks.

The subject of assay [3] is iNeurons from sPD patients. Description: Cellular ATP in iNeurons (dopaminergic neurons derived from sPD patients). The following applies: for EC50: Homo sapiens, Neuron, sPD patient iNeurons, dosing every 3 days for last 12 days of differentiation; for ATP normalisation (% of controls): sPD patient iNeurons treated, untreated sPD patients 50. The procedure:
as §2, §3, §4

For assay [4], the system named is iNeurons from sPD patients. Description: Mitochondrial membrane potential (MMP) in iNeurons from sPD patients. The following applies: for EC50: Homo sapiens, sPD patient iNeurons, dosing every 3 days for last 12 days of differentiation; for MMP normalisation (% of controls): sPD patient iNeurons treated, untreated sPD patients 52. The procedure:
as §2, §3, §4

Assay [5] concerns sporadic PD patient fibroblasts. Description: Mitochondrial membrane potential (MMP, TMRM) in sporadic PD patient fibroblasts. Conditions: Homo sapiens, Fibroblast, 24 h, 3 sporadic PD patient fibroblasts. The procedure: as §1
Fibroblasts were cultured and plated into a greiner black 384 μClear® plate at a concentration of 1000 cells per well in 50 μl of media volume. The plates are left overnight in an incubator to allow the fibroblasts to adhere to the plate surface. The following morning the Glucose based medium is replaced with 25 μl of Galactose based medium. The plates were then dosed with the compounds using an ECHO® 550 liquid handling system. The wells were dosed to provide an 8-point concentration range of 0.06 nM-300 nM of compound. After dosing the wells are topped up with a further 25 μl of Galactose based medium and then left in an incubator for 24 hours. After 24 hours, the medium is removed from the wells and replaced with 25 μl phenol free Minimal essential medium supplemented with 10% FBS, 1% Penicillin-streptomycin, 1% sodium pyruvate, 0.1% uridine, 1% non-essential amino acids and 1% MEM vitamins with 80 nM TMRM (Sigma) and 10 μM Hoechst Stain (Sigma). The plate is returned to the incubator for another hour after which the stain medium is removed and replaced with 25 μl Phenol free MEM. The plate is then imaged using an IN Cell high content microscope (GE Healthcare) with fields of view per well in 2 channels, Cy3 excitation 542 nm, emission 604-64 nm; and the DAPI excitation 350 nm, emission 450-55 nm at 37° C. with CO2. After imaging the plate is disposed of and the images are Data mined using the INCell developer Toolkit (GE Healthcare).
After the assays had been repeated in triplicate per line and compound the data was then inputted into Graph pad Prism 7 software suite where a dose response curve is generated using the default “[Agonist] vs response(three parameters)” equation. […]

The test system of assay [6] is iNeurons from sPD patients. Description: Neuronal morphology (elongation) in iNeurons from sPD patients. Conditions: sPD patient iNeurons treated; untreated sPD patients 48. The procedure: as §2, §3
(§5) Cells are plated into 96 well plates and fixed using 4% paraformaldehyde for 30 minutes. After PBS washes cells are permeabilised using 0.1% Triton™ X-100 for 10 minutes and blocked using 5% goat serum for 1 hour. Cells are incubated with primary antibodies βIII tubulin (Millipore); activated caspase 3 (Cell Signaling); at 4° C. for 16 hours. Cells are washed using PBS-Tween® and incubated with Alexa Fluor™-conjugated secondary antibodies 488 and 568 (Invitrogen) and Hoescht (Sigma) 1 μM prior to imaging. Imaging was performed using the Opera Phenix™ high content imaging system (Perkin Elmer).
iNeurons were treated every 3 days for the last 12 days of the differentiation protocol. […] Mitochondrial reactive oxygen species generation was assessed using mitochondrial NpFR2 (probe; a kind gift from Dr Liz New, University of Sydney, Australia) at 20 μM and Hoechst stain solution at 1 μM for 30 mins at 37° C., then the dyes are removed and cells images using Opera Phenix™. Images generated from the live imaging experiments were analysed using Harmony® (Perkin Elmer software). […] We only analysed the z projection images collected from the z stacks.

Assay [7] concerns iNeurons from sPD patients. Description: Activated caspase 3 levels (apoptosis) in iNeurons from sPD patients. The following applies: sPD patient iNeurons treated; untreated sPD patients 162. The procedure:
as §2, §3, §5

The test system of assay [8] is sporadic PD patient fibroblasts. Description: Cellular ATP levels in sporadic PD patient fibroblasts, Preliminary ATP assay. Conditions: Homo sapiens, Fibroblast, 24 h, % of vehicle treated sPD fibroblasts, 3 sporadic PD patients. The procedure: In some cases, a preliminary ATP protocol was used in which EC50 was not determined. The preliminary ATP protocol is generally as described in Mortiboys et al 2008. Briefly, fibroblasts were cultured and plated into white, clear-bottom 384 well plates at a concentration of 4000 cells per well in 50 μl of media volume. The plates are left overnight in an incubator to allow the fibroblasts to adhere to the plate surface. The following morning the Glucose based medium is replaced with 25 μl of Galactose based medium. The cells were then dosed with 100 nM and 1 μM concentrations of the compounds using a ECHO 550 liquid handling system. After dosing the wells are topped up with a further 25 μl of Galactose based medium and then left in an incubator for 24 hours. Following this incubation, the medium is removed from the plate and the wells are washed twice with sterile PBS. The wells are filled with 20 μl of Sterile PBS followed by 10 μl of Lysis solution from the ATPlite™ Luminescence ATP detection assay system (Perkin Elmer), including 14 cell free wells to use as blank controls. The plate is then placed on a rotary shaker for 10 mins at 700 rpm. Following the shaking 10 μl of ATP substrate solution (Perkin Elmer) is added to each well and a further 5 min of shaking. The plate is then incubated in the dark for 10 minutes prior to reading. Using a FLUOstar® Omega plate reader, luminescence intensity is recorded. Following the ATP assay the plates are immediately assayed for DNA content in a CyQUANT® assay.
Immediately following The ATP assay DNA content is assessed with the CyQUANT® NF Cell Proliferation Assay Kit (ThermoFisher). CyQUANT® buffer is prepared immediately before the assay and is comprised of 2 μl CyQUANT® dye per ml×1 HBSS solution. 10 μl of CyQUANT® buffer is added to each well. Cell plates were then incubated for 1 hour before being read on a FLUOStar® Plate reader with excitation at 497 nm and emission at 520 nm.
The ATP Quantification for each well is determined as set out above.

As a reminder, the EC50 is the concentration that produces a half-maximal response. Take `C[C@H](CCC(=O)O)[C@H]1CC[C@H]2[C@@H]3[C@@H](O)C[C@@H]4CNCC[C@]4(C)[C@H]3CC[C@]12C.Cl` [Compound 28a, 3-Aza-7β-hydroxy-5β-cholan-24-oic acid hydrochloride salt]: the EC50 was 10.9 nM in assay [1] (8-point range 0.06 nM-300 nM), 6.5 nM in assay [3], 10.3 nM in assay [4] and 4.58 nM in assay [5] (8-point range 0.06 nM-300 nM). In addition, in assay [1] (max response with highest dose of compound (300 nM), read-out: ATP % of vehicle, top %), the Emax at 0.3 µM was determined as 137%. The activity at 60 pM in assay [1] (max response with lowest dose of compound (0.06 nM), read-out: ATP % of vehicle, bottom %) is 98.3%; in assay [5] (max response with lowest dose of compound (0.06 nM), read-out: MMP % of vehicle, bottom %) it was 96.8%. In addition, in assay [2], the “ROS normalisation (% of controls)” value was 111 % of controls. For the same molecule, the “ATP normalisation (% of controls)” value in assay [3] was 89.6 % of controls. For the same molecule, the “MMP normalisation (% of controls)” value in assay [4] is 71 % of controls. The Emax in assay [5] (max response with highest dose of compound (300 nM), read-out: MMP % of vehicle, top %) worked out at 120%.

As for `C[C@H](CCC(=O)O)[C@H]1CC[C@H]2[C@@H]3[C@@H](O)C[C@@H]4C[C@H](O)CC[C@]4(C)[C@H]3CC[C@]12C` [UDCA, ursodeoxycholic acid, reference compound], the “Neuronal morphology (elongation; % controls)” value in assay [6] is 64 % controls. In addition, the “Activated caspase 3 levels” value in assay [7] is 143 % of level in iNeurons from Controls. The “ROS normalisation (% of controls)” value in assay [2] was 110 % of controls. In assay [3], the EC50 is 5 nM and the “ATP normalisation (% of controls)” value is 82 % of controls. Further, in assay [8] (100 nM, read-out: Average ATP Response 100 nM), the activity at 0.1 µM turned out to be 105%. The activity at 1 µM in assay [8] (1 μM, read-out: Average ATP Response 1 μM) was determined as 98.9%. In assay [4], the EC50 came out at 7.3 nM and the “MMP normalisation (% of controls)” value was 73 % of controls.
